Results as given in patent US6492383B1, “Thienopyrimidine and thienopyridine derivatives useful as anticancer agents” (Pfizer Inc., priority 1998, dated 2002).
Counter-ions that a name gives are not always drawn. Blank lines part the entries; values can stand above or below the compound they belong to.

SMILES: CNCc1ccc(-c2cc3ncnc(Nc4ccc5[nH]ccc5c4)c3s2)cc1 (as salt: mesylate) [Example 25, (1H-Indol-5-yl)-[6-(4-methylaminomethyl-phenyl)-thieno[3,2-d]pyrimidin-4-yl]-amine]
- melting point: 140 to 147 °C

SMILES: O=[N+]([O-])c1cccc(-c2cc3ncnc(Nc4ccc5[nH]ccc5c4)c3s2)c1 [Example 10, (1H-Indol-5-yl)-[6-(3-nitro-phenyl)-thieno[3,2-d]pyrimidin-4-yl]-amine]
- melting point: 175 to 183 °C

SMILES: c1nc(Nc2ccc3[nH]ccc3c2)c2sc(-c3ccc(CNCCN4CCOCC4)cc3)cc2n1 [Example 24, (1H-Indol-5-yl)-(6-{4-[(2-morpholin-4-yl-ethylamino)-methyl]-phenyl}-thieno[3,2-d]pyrimidin-4-yl)-amine]
- melting point: 100 to 111 °C

SMILES: c1coc(CNCc2ccc(-c3cc4ncnc(Nc5ccc6[nH]ccc6c5)c4s3)cc2)c1 [Example 34, [6-(4-{[(Furan-2-ylmethyl)-amino]-methyl}-phenyl)-thieno[3,2-d]pyrimidin-4-yl]-(1H-indol-5-yl)-amine]
- melting point: 125 to 134 °C

SMILES: COc1ccc(-c2cc3ncnc(Nc4ccc5[nH]ccc5c4)c3s2)cc1 [Example 5, (1H-Indol-5-yl)-[6-(4-methoxy-phenyl)-thieno[3,2-d]pyrimidin-4-yl]-amine]
- melting point: 150 to 180 °C

SMILES: c1ccc(-c2cc3ncnc(Nc4ccc5[nH]ccc5c4)c3s2)cc1 [Example 2, (1H-indol-5-yl)-(6-phenyl-thieno[3,2-d]pyrimidin-4-yl)-amine]
- melting point: 255 to 258 °C (dec.)

SMILES: OCCN(CCO)Cc1ccc(-c2cc3ncnc(Nc4ccc5[nH]ccc5c4)c3s2)cc1 (as salt: mesylate) [Example 29, 2-((2-Hydroxy-ethyl)-{4-[4-(1H-indol-5-ylamino)-thieno[3,2-d]pyrimidin-6-yl]-benzyl}-amino)-ethanol]
- melting point: 110 to 127 °C

SMILES: c1nc(Nc2ccc3[nH]ccc3c2)c2sc(-c3ccsc3)cc2n1 [Example 8, (1H-indol-5-yl)-(6-thiophen-3-yl-thieno[3,2-d]pyrimidin-4-yl)-amine]
- melting point: 178 to 189 °C

SMILES: c1nc(Nc2ccc3[nH]ccc3c2)c2sc(-c3ccc(CNCCN4CCNCC4)cc3)cc2n1 [Example 23, (1H-Indol-5-yl)-(6-{4-[(2-piperazin-1-yl-ethylamino)-methyl]-phenyl}-thieno[3,2-d]pyrimidin-4-yl)-amine]
- melting point: 178 to 191 °C

SMILES: CN(C)CCNCc1ccc(-c2cc3ncnc(Nc4ccc5[nH]ccc5c4)c3s2)cc1 [Example 18, N-{4-[4-(1H-Indol-5-ylamino)-thieno[3,2-d]pyrimidin-6-yl]-benzyl}-N′,N′-dimethyl-ethane-1,2-diamine]
- melting point: 170 to 183 °C

SMILES: OCCOCCNCc1ccc(-c2cc3ncnc(Nc4ccc5[nH]ccc5c4)c3s2)cc1 (as salt: mesylate) [Example 30, 2-(2-(4-[4-(1H-Indol-5-ylamino)-thieno[3,2-d]pyrimidin-6-yl]-benzylamino}-ethoxy)-ethanol]
- melting point: 111 to 119 °C

SMILES: OCCNCCNCc1ccc(-c2cc3ncnc(Nc4ccc5[nH]ccc5c4)c3s2)cc1 (as salt: mesylate) [Example 31, 2-(2-{4-[4-(1H-indol-5-ylamino)-thieno[3,2-d]pyrimidin-6-yl]-benzylamino}-ethylamino)-ethanol]
- melting point: 78 to 95 °C

SMILES: Cc1ccc(-c2cc3ncnc(Nc4ccc5[nH]ccc5c4)c3s2)cc1 [Example 6, (1H-Indol-5-yl)-(6-p-tolyl-thieno[3,2-d]pyrimidin-4-yl)-amine]
- melting point: 200 to 220 °C

SMILES: COc1ccc(-c2cc3ncnc(Nc4ccc5[nH]ccc5c4)c3s2)cc1OC [Example 16, [6-(3,4-Dimethoxy-phenyl)-thieno[3,2-d]pyrimidin-4-yl]-(1H-indol-5-yl)-amine]
- melting point: 171 to 178 °C

SMILES: CCCNCc1ccc(-c2cc3ncnc(Nc4ccc5[nH]ccc5c4)c3s2)cc1 [Example 21, (1H-Indol-5-yl)-[6-(4-propylaminomethyl-phenyl)-thieno[3,2-d]pyrimidin-4-yl]-amine]
- melting point: 190 to 205 °C

SMILES: CSc1ccc(-c2cc3ncnc(Nc4ccc5[nH]ccc5c4)c3s2)cc1 [Example 9, (1H-Indol-5-yl)-[6-(4-methylsulfanyl-phenyl)-thieno[3,2-d]pyrimidin-4-yl]-amine]
- melting point: 163 to 178 °C

SMILES: COCCCNCc1ccc(-c2cc3ncnc(Nc4ccc5[nH]ccc5c4)c3s2)cc1 [Example 22, (1H-Indol-5-yl)-(6-{4-[(3-methoxy-propylamino)-methyl]-phenyl}-thieno[3,2-d]pyrimidin-4-yl)-amine]
- melting point: 160 to 175 °C

SMILES: CN1CCN(Cc2ccc(-c3cc4ncnc(Nc5ccc6[nH]ccc6c5)c4s3)cc2)CC1 (as salt: mesylate) [Example 26, (1H-Indol-5-yl)-{6-[4-(4-methyl-piperazin-1-ylmethyl)-phenyl]-thieno[3,2-d]pyrimidin-4-yl}-amine]
- melting point: 143 to 150 °C

SMILES: c1csc(CNCc2ccc(-c3cc4ncnc(Nc5ccc6[nH]ccc6c5)c4s3)cc2)c1 (as salt: mesylate) [Example 33, (1H-Indol-5-yl)-[6-(4-{[(thiophen-2-ylmethyl)-amino]-methyl}-phenyl)-thieno[3,2-d]pyrimidin-4-yl]-amine]
- melting point: 111 to 121 °C

The next lines start with the values.

- melting point: 259 to 261 °C
SMILES: c1ccc(-c2cc3ncnc(Nc4ccc(NCc5c[nH]c6ccccc56)cc4)c3s2)cc1 [Example 76, N-(1H-Indol-3-ylmethyl)-N′-(6-phenyl-thieno[3,2-d]pyrimidin-4-yl)-benzene-1,4-diamine]

- melting point: 170 to 171 °C
SMILES: Cc1cccc(Nc2ccc(Nc3ncnc4cc(-c5ccccc5)sc34)cc2)c1 [Example 63, N-(6-Phenyl-thieno[3,2-d]pyrimidin-4-yl)-N′-m-tolyl-benzene-1,4-diamine]

- melting point: 221 to 222 °C
SMILES: Cc1ccc(Nc2ccc(Nc3ncnc4cc(-c5ccccc5)sc34)cc2)cc1 [Example 64, N-(6-Phenyl-thieno[3,2-d]pyrimidin-4-yl)-N′-p-tolyl-benzene-1,4-diamine]

- melting point: 181 to 185 °C
SMILES: COc1ccc(Nc2ccc(Nc3nc(C)nc4cc(-c5ccccc5)sc34)cc2)cc1 [Example 72, N-(4-Methoxy-phenyl)-N′-(2-methyl-6-phenyl-thieno[3,2-d]pyrimidin-4-yl)-benzene-1,4-diamine]

- melting point: 243 to 249 °C
SMILES: COc1ccc(-c2cc3ncnc(Nc4ccc5[nH]ccc5c4)c3s2)cn1 [Example 86, (1H-Indol-5-yl)-[6-(6-methoxy-pyridin-3-yl)-thieno[3,2-d]pyrimidin-4-yl]-amine]

- melting point: 189 to 191 °C
SMILES: COc1cccc(Nc2ccc(Nc3ncnc4cc(-c5ccccc5)sc34)cc2)c1 [Example 66, N-(3-Methoxy-phenyl)-N′-(6-phenyl-thieno[3,2-d]pyrimidin-4-yl)-benzene-1,4-diamine]

- melting point: 167 to 174 °C
SMILES: O=C(c1ccco1)N1CCN(Cc2ccc(-c3cc4ncnc(Nc5ccc6[nH]ccc6c5)c4s3)cc2)CC1 [Example 46, Furan-2-yl-(4-{4-[4-(1H-indol-5-ylamino)-thieno[3,2-d]pyrimidin-6-yl]-benzyl}-piperazin-1-yl)-methanone]

- melting point: 174 to 175 °C
SMILES: O=Cc1c[nH]c2ccc(Nc3ncnc4cc(-c5ccccc5)sc34)cc12 [Example 74, 5-(6-Phenyl-thieno[3,2-d]pyrimidin-4-ylamino)-1H-indole-3-carbaldehyde]

- melting point: 98 to 115 °C
SMILES: CCOC(=O)CNC(=O)CNCc1ccc(-c2cc3ncnc(Nc4ccc5[nH]ccc5c4)c3s2)cc1 [Example 38, (2-{4-[4-(1H-indol-5-ylamino)-thieno[3,2-d]pyrimidin-6-yl]-benzylamino}-acetylamino)-acetic acid ethyl ester]

- melting point: 198 to 205 °C
SMILES: NC(=O)C1CCN(Cc2ccc(-c3cc4ncnc(Nc5ccc6[nH]ccc6c5)c4s3)cc2)CC1 [Example 44, 1-{4-[4-(1H-Indol-5-ylamino)-thieno[3,2-d]pyrimidin-6-yl]-benzyl}-piperidine-4-carboxylic acid amide]

- melting point: 176 to 180 °C
SMILES: c1nc(Nc2ccc3[nH]ccc3c2)c2sc(-c3ccc(CNC4CC4)cc3)cc2n1 [Example 40, [6-(4-Cyclopropylaminomethyl-phenyl)-thieno[3,2-d]pyrimidin-4-yl]-(1H-indol-5-yl)-amine]

- melting point: 148 to 160 °C
SMILES: CN(C)CCCNCc1ccc(-c2cc3ncnc(Nc4ccc5[nH]ccc5c4)c3s2)cc1 [Example 36, N-{4-[4-(1H-Indol-5-ylamino)-thieno[3,2-d]pyrimidin-6-yl]-benzyl}-N′,N′-dimethyl-propane-1,3-diamine]

- melting point: 139 to 146 °C
SMILES: O=C1CCCN1CCCNCc1ccc(-c2cc3ncnc(Nc4ccc5[nH]ccc5c4)c3s2)cc1 [Example 35, 1-(3-{4-[4-(1H-Indol-5-ylamino)-thieno[3,2-d]pyrimidin-6-yl]-benzylamino}-propyl)-pyrrolidin-2-one]

- melting point: 218 to 220 °C
SMILES: Cc1cc2cc(Nc3ncnc4cc(-c5ccccc5)sc34)ccc2[nH]1 [Example 68, (2-Methyl-1H-indol-5-yl)-(6-phenyl-thieno[3,2-d]pyrimidin-4-yl)-amine]

- melting point: 161 to 177 °C
SMILES: COCC1CCCN1Cc1ccc(-c2cc3ncnc(Nc4ccc5[nH]ccc5c4)c3s2)cc1 (centres unmarked) [Example 42, (1H-Indol-5-yl)-{6-[4-(2-methoxymethyl-pyrrolidin-1-ylmethyl)-phenyl]-thieno[3,2-d]pyrimidin-4-yl}-amine]

- melting point: 142 to 155 °C
SMILES: CC(=O)NCCNCc1ccc(-c2cc3ncnc(Nc4ccc5[nH]ccc5c4)c3s2)cc1 [Example 43, N-(2-{4-[4-(1H-Indol-5-ylamino)-thieno[3,2-d]pyrimidin-6-yl]-benzylamino}-ethyl)-acetamide]

- melting point: 201 to 203 °C
SMILES: c1ccc(COCCNc2ccc(Nc3ncnc4cc(-c5ccccc5)sc34)cc2)cc1 [Example 73, N-(2-Benzyloxy-ethyl)-N′-(6-phenyl-thieno[3,2-d]pyrimidin-4-yl)-benzene-1,4-diamine]

- melting point: 205 to 210 °C
SMILES: Cc1nc(Nc2ccc3[nH]ccc3c2)c2sc(-c3ccccc3)cc2n1 [Example 71, (1H-Indol-5-yl)-(2-methyl-6-phenyl-thieno[3,2-d]pyrimidin-4-yl)-amine]

- melting point: 231 to 240 °C
SMILES: COc1ccc(Nc2ccc(Nc3ncnc4cc(-c5cccs5)sc34)cc2)cc1 [Example 81, N-(4-Methoxy-phenyl)-N′-(6-thiophen-2-yl-thieno[3,2-d]pyrimidin-4-yl)-benzene-1,4-diamine]
